Results taken from US5292733A, “Cephalosporin compounds” (Lucky Limited, priority 1991, dated 1994).
Values after ≈ are worked out from the molar mass of the structure shown.

Assays:
Assay in all cases: Antibacterial activity MIC, two-fold agar dilution
Type in all cases: cell-based
[1] = system: Pseudomonas aeruginosa ATCC 27853; settings: ATCC27853; Pseudomonas aeruginosa ATCC 27853; Muller-Hinton agar, 37° C., 20 hours; read-out: Antibacterial Activity MIC
Summary of the method: (§1)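 Steps: prepare two-fold serial compound dilutions in Muller-Hinton agar; inoculate 2 μl of standard strain at 10^7 CFU per ml; incubate 20 h at 37° C.; record MIC.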

[2] = system: Staphylococcus epidermidis ATCC 12228; settings: ATCC12228; Staphylococcus epidermidis ATCC 12228; Muller-Hinton agar, 37° C., 20 hours; read-out: Antibacterial Activity MIC
Summary of the method: as §1

[3] = system: Klebsiella pneumoniae ATCC 10031; settings: ATCC10031; Klebsiella pneumoniae ATCC 10031; Muller-Hinton agar, 37° C., 20 hours; read-out: Antibacterial Activity MIC
Summary of the method: as §1

[4] = system: Salmonella typhimurium ATCC 14028; settings: Salmonella enterica; Salmonella typhimurium ATCC 14028; Muller-Hinton agar, 37° C., 20 hours; read-out: Antibacterial Activity MIC
Summary of the method: as §1

[5] = system: Micrococcus luteus ATCC 9341; settings: ATCC9341; Micrococcus luteus ATCC 9341; Muller-Hinton agar, 37° C., 20 hours; read-out: Antibacterial Activity MIC
Summary of the method: as §1

[6] = system: Enterobacter aerogenes ATCC 29751; settings: Klebsiella aerogenes, ATCC29751; Enterobacter aerogenes ATCC 29751; Muller-Hinton agar, 37° C., 20 hours; read-out: Antibacterial Activity MIC
Summary of the method: as §1

[7] = system: Bacillus cereus ATCC 11778; settings: ATCC11778; Bacillus cereus ATCC 11778; Muller-Hinton agar, 37° C., 20 hours; read-out: Antibacterial Activity MIC
Summary of the method: as §1

[8] = system: Acinetobacter calcoaceticus ATCC 15473; settings: ATCC15473; Acinetobacter calcoaceticus ATCC 15473; Muller-Hinton agar, 37° C., 20 hours; read-out: Antibacterial Activity MIC
Summary of the method: as §1

[9] = system: Streptococcus faecalis ATCC 29212; settings: Enterococcus faecalis, ATCC29212; Streptococcus faecalis ATCC 29212; Muller-Hinton agar, 37° C., 20 hours; read-out: Antibacterial Activity MIC
Summary of the method: as §1

[10] = system: Bacillus megaterium ATCC 9885; settings: Priestia megaterium, ATCC9885; Bacillus megaterium ATCC 9885; Muller-Hinton agar, 37° C., 20 hours; read-out: Antibacterial Activity MIC
Summary of the method: as §1

[11] = system: Proteus vulgaris ATCC 6059; settings: ATCC6059; Proteus vulgaris ATCC 6059; Muller-Hinton agar, 37° C., 20 hours; read-out: Antibacterial Activity MIC
Summary of the method: as §1

[12] = system: Shigella flexneri ATCC 11836; settings: ATCC11836, Muller-Hinton agar, 37° C., 20 hours
Summary of the method: as §1

[13] = system: Escherichia coli ATCC 25922; settings: ATCC25922, Muller-Hinton agar, 37° C., 20 hours
Summary of the method: as §1

[14] = system: Pseudomonas aeruginosa ATCC 25619; settings: ATCC25619; Pseudomonas aeruginosa ATCC 25619; Muller-Hinton agar, 37° C., 20 hours; read-out: Antibacterial Activity MIC
Summary of the method: as §1

[15] = system: Enterobacter cloacae ATCC 27508; settings: ATCC27508; Enterobacter cloacae ATCC 27508; Muller-Hinton agar, 37° C., 20 hours; read-out: Antibacterial Activity MIC
Summary of the method: as §1

[16] = system: Shigella sonnei ATCC 11060; settings: ATCC11060, Muller-Hinton agar, 37° C., 20 hours
Summary of the method: as §1

[17] = system: Morganella morganii ATCC 8076h; settings: ATCC8076H, Muller-Hinton agar, 37° C., 20 hours
Summary of the method: as §1

[18] = system: Staphylococcus aureus ATCC 10537; settings: ATCC10537; Staphylococcus aureus ATCC 10537; Muller-Hinton agar, 37° C., 20 hours; read-out: Antibacterial Activity MIC
Summary of the method: as §1

[19] = system: Providencia rettgeri ATCC 9250; settings: ATCC9250, Muller-Hinton agar, 37° C., 20 hours
Summary of the method: as §1

[20] = system: Serratia marcescens ATCC 27117; settings: ATCC27117; Serratia marcescens ATCC 27117; Muller-Hinton agar, 37° C., 20 hours; read-out: Antibacterial Activity MIC
Summary of the method: as §1

[21] = system: Staphylococcus aureus ATCC 6538p; settings: ATCC6538P; Staphylococcus aureus ATCC 6538p; Muller-Hinton agar, 37° C., 20 hours; read-out: Antibacterial Activity MIC
Summary of the method: as §1

[22] = system: Citrobacter freundii ATCC 8090; settings: ATCC8090; Citrobacter freundii ATCC 8090; Muller-Hinton agar, 37° C., 20 hours; read-out: Antibacterial Activity MIC
Summary of the method: as §1

[23] = system: Pseudomonas aeruginosa ATCC 10145; settings: ATCC10145; Pseudomonas aeruginosa ATCC 10145; Muller-Hinton agar, 37° C., 20 hours; read-out: Antibacterial Activity MIC
Summary of the method: as §1

[24] = system: Escherichia coli ATCC 10536; settings: ATCC10536, Muller-Hinton agar, 37° C., 20 hours
Summary of the method: as §1

[25] = system: Proteus mirabilis ATCC 25933; settings: ATCC25933; Proteus mirabilis ATCC 25933; Muller-Hinton agar, 37° C., 20 hours; read-out: Antibacterial Activity MIC
Summary of the method: as §1

Row | SMILES | MIC [1] | MIC [2] | MIC [3] | MIC [4] | MIC [5] | MIC [6] | MIC [7] | MIC [8] | MIC [9] | MIC [10] | MIC [11] | MIC [12] | MIC [13] | MIC [14] | MIC [15] | MIC [16] | MIC [17] | MIC [18] | MIC [19] | MIC [20] | other results
1 | C[n+]1c(SCC2=C(C(=O)[O-])N3C(=O)[C@@H](NC(=O)/C(=N\OC(C)(C)C(=O)O)c4csc(N)n4)[C@H]3SC2)cc(N)nc1N [Compound I-1] | 1 µg/mL (≈ 1.6 µM) | 2 µg/mL (≈ 3.21 µM) | 0.031 µg/mL (≈ 0.0497 µM) | 0.5 µg/mL (≈ 0.802 µM) | 0.5 µg/mL (≈ 0.802 µM) | 2 µg/mL (≈ 3.21 µM) | 128 µg/mL (≈ 205 µM) | 4 µg/mL (≈ 6.41 µM) | > 128 µg/mL | 0.25 µg/mL (≈ 0.401 µM) | 0.31 µg/mL (≈ 0.497 µM) | 0.031 µg/mL (≈ 0.0497 µM) | 0.13 µg/mL (≈ 0.208 µM) | 1 µg/mL (≈ 1.6 µM) | 0.016 µg/mL (≈ 0.0257 µM) | 0.25 µg/mL (≈ 0.401 µM) | ≤ 0.008 µg/mL | 4 µg/mL (≈ 6.41 µM) | ≤ 0.008 µg/mL | 0.13 µg/mL (≈ 0.208 µM) | MIC [21]: 8 µg/mL (≈ 12.8 µM); MIC [22]: 0.13 µg/mL (≈ 0.208 µM); MIC [23]: 2 µg/mL (≈ 3.21 µM); MIC [24]: 0.13 µg/mL (≈ 0.208 µM); MIC [25]: 0.31 µg/mL (≈ 0.497 µM)
2 | C[n+]1c(N)nc(N)nc1SCC1=C(C(=O)[O-])N2C(=O)C(NC(=O)/C(=N\OC(C)(C)C(=O)O)c3csc(N)n3)[C@H]2SC1 (stereo partly shown) [Compound I-23, 7-[(Z)-2-(2-aminothiazol-4-yl)-2-(2-carboxyprop-2-oxyimino)acetamido]-3-(4,6-diamino-1-methyl-1,3,5-triazinium-2-yl)thiomethyl-3-cephem-4-carboxylate] | 1 µg/mL (≈ 1.6 µM) | 2 µg/mL (≈ 3.2 µM) | 0.063 µg/mL (≈ 0.101 µM) | 0.13 µg/mL (≈ 0.208 µM) | 1 µg/mL (≈ 1.6 µM) | 2 µg/mL (≈ 3.2 µM) | 128 µg/mL (≈ 205 µM) | 4 µg/mL (≈ 6.4 µM) | > 128 µg/mL | 0.5 µg/mL (≈ 0.8 µM) | 0.063 µg/mL (≈ 0.101 µM) | 0.063 µg/mL (≈ 0.101 µM) | 0.063 µg/mL (≈ 0.101 µM) | 1 µg/mL (≈ 1.6 µM) | 0.031 µg/mL (≈ 0.0496 µM) | 0.063 µg/mL (≈ 0.101 µM) | ≤ 0.008 µg/mL | 2 µg/mL (≈ 3.2 µM) | ≤ 0.008 µg/mL | 0.13 µg/mL (≈ 0.208 µM) | MIC [21]: 8 µg/mL (≈ 12.8 µM); MIC [22]: 0.13 µg/mL (≈ 0.208 µM); MIC [23]: 2 µg/mL (≈ 3.2 µM); MIC [24]: 0.063 µg/mL (≈ 0.101 µM); MIC [25]: 0.063 µg/mL (≈ 0.101 µM)
3 | CC[n+]1c(N)cc(SCC2=C(C(=O)[O-])N3C(=O)[C@@H](NC(=O)/C(=N\OCC(=O)O)c4csc(N)n4)[C@H]3SC2)nc1N [Compound I-18, (6R,7R)-7-[(Z)-2-(2-aminothiazol-4-yl)-2-(carboxymethoxyimino)acetamido]-3-(2,6-diamino-1-ethyl-pryrimidinium-4-yl)thiomethyl-3-cephem-4-carboxylate] | 2 µg/mL (≈ 3.28 µM) | 2 µg/mL (≈ 3.28 µM) | 0.031 µg/mL (≈ 0.0508 µM) | 0.25 µg/mL (≈ 0.41 µM) | 0.5 µg/mL (≈ 0.82 µM) | 2 µg/mL (≈ 3.28 µM) | > 128 µg/mL | 16 µg/mL (≈ 26.2 µM) | > 128 µg/mL | 0.5 µg/mL (≈ 0.82 µM) | 0.063 µg/mL (≈ 0.103 µM) | 0.016 µg/mL (≈ 0.0262 µM) | 0.063 µg/mL (≈ 0.103 µM) | 1 µg/mL (≈ 1.64 µM) | 0.016 µg/mL (≈ 0.0262 µM) | 0.063 µg/mL (≈ 0.103 µM) | ≤ 0.008 µg/mL | 4 µg/mL (≈ 6.56 µM) | ≤ 0.008 µg/mL | 0.063 µg/mL (≈ 0.103 µM) | MIC [21]: 4 µg/mL (≈ 6.56 µM); MIC [22]: 0.063 µg/mL (≈ 0.103 µM); MIC [23]: 4 µg/mL (≈ 6.56 µM); MIC [24]: 0.063 µg/mL (≈ 0.103 µM); MIC [25]: 0.063 µg/mL (≈ 0.103 µM)
4 | C[n+]1c(N)cc(SCC2=C(C(=O)[O-])N3C(=O)[C@@H](NC(=O)/C(=N\OCC(=O)O)c4csc(N)n4)[C@H]3SC2)nc1N [Compound I-17, (6R,7R)-7-[(Z)-2-(2-aminothiazol-4-yl)-2-(carboxymethoxyimino)acetamido]-3-(2,6-diamino-1-methylpyrimidinium-4-yl)thiomethyl-3-cephem-4-carboxylate] | 2 µg/mL (≈ 3.36 µM) | 2 µg/mL (≈ 3.36 µM) | 0.031 µg/mL (≈ 0.052 µM) | 0.063 µg/mL (≈ 0.106 µM) | 1 µg/mL (≈ 1.68 µM) | 1 µg/mL (≈ 1.68 µM) | > 128 µg/mL | 16 µg/mL (≈ 26.9 µM) | > 128 µg/mL | 0.5 µg/mL (≈ 0.839 µM) | 0.063 µg/mL (≈ 0.106 µM) | 0.016 µg/mL (≈ 0.0269 µM) | 0.016 µg/mL (≈ 0.0269 µM) | 1 µg/mL (≈ 1.68 µM) | 0.016 µg/mL (≈ 0.0269 µM) | 0.031 µg/mL (≈ 0.052 µM) | ≤ 0.008 µg/mL | 4 µg/mL (≈ 6.72 µM) | ≤ 0.008 µg/mL | 0.063 µg/mL (≈ 0.106 µM) | MIC [21]: 8 µg/mL (≈ 13.4 µM); MIC [22]: 0.031 µg/mL (≈ 0.052 µM); MIC [23]: 4 µg/mL (≈ 6.72 µM); MIC [24]: 0.031 µg/mL (≈ 0.052 µM); MIC [25]: 0.031 µg/mL (≈ 0.052 µM)
